Data taken from US10385022B2, “3-amino-pyridines as GPBAR1 agonists” (HOFFMANN-LA ROCHE INC., priority 2011, dated 2019).

The compounds below were run against human GPBAR1 receptor (Homo sapiens (Human), UniProt Q8TDU6) (assay: functional cAMP assay in CHO-dhfr(minus) cells expressing human GPBAR1 receptors). Settings: CHO-dhfr(minus) cells expressing human GPBAR1, 30 min at 30° C.
Format: cell-based
Summary of the method: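 Functional cAMP responses in a human GPBAR1-transfected CHO-dhfr- clone, picked using lithocholic acid as agonist, gave the EC50 values. Parallel testing in untransfected CHO cells served as a specificity control.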

Sequence of human GPBAR1 receptor (Q8TDU6 whole entry): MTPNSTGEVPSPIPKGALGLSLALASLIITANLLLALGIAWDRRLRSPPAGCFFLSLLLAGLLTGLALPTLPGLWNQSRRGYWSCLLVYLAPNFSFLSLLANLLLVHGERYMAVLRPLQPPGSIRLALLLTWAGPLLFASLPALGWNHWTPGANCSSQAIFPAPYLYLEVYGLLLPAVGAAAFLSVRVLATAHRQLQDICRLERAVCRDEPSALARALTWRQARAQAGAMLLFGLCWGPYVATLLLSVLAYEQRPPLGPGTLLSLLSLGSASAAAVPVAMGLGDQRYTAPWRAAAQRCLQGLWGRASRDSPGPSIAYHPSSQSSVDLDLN

SMILES	EC50
O=C(c1cc(C(F)(F)F)nc(C(F)(F)F)c1)N(CC(F)F)c1cnccc1-c1ccccc1F [Example 155, N-(2,2-Difluoro-ethyl)-N-[4-(2-fluoro-phenyl)-pyridin-3-yl]-2,6-bis-trifluoromethyl-isonicotinamide]	38 nM
COc1cc(F)c(F)cc1-c1ccncc1N(C)C(=O)c1cc(C(F)(F)F)cc(C(F)(F)F)c1 [Example 39, N-[4-(4,5-Difluoro-2-methoxy-phenyl)-pyridin-3-yl]-N-methyl-3,5-bis-trifluoromethyl-benzamide]	38 nM
COc1cc(F)ccc1-c1cc(C)ncc1N(C)C(=O)c1cc(Br)cc(C(F)(F)F)c1 [Example 303, 3-Bromo-N-[4-(4-fluoro-2-methoxy-phenyl)-6-methyl-pyridin-3-yl]-N-methyl-5-trifluoromethyl-benzamide]	18 nM
COc1cccc(F)c1-c1ccncc1N(C)C(=O)c1cc(C(F)(F)F)cc(C(F)(F)F)c1 [Example 66, N-[4-(2-Fluoro-6-methoxy-phenyl)-pyridin-3-yl]-N-methyl-3,5-bis-trifluoromethyl-benzamide]	8 nM
CN(C)C(=O)CN(C(=O)c1cc(C(F)(F)F)cc(C(F)(F)F)c1)c1cnccc1-c1ccccc1Cl [Example 118, N-[4-(2-Chloro-phenyl)-pyridin-3-yl]-N-dimethylcarbamoylmethyl-3,5-bis-trifluoromethyl-benzamide]	2470 nM
CS(=O)(=O)CCN(C(=O)c1cc(C(F)(F)F)cc(S(C)(=O)=O)c1)c1cnccc1-c1ccccc1Cl [Example 288, N-[4-(2-Chloro-phenyl)-pyridin-3-yl]-3-methanesulfonyl-N-(2-methanesulfonyl-ethyl)-5-trifluoromethyl-benzamide]	1480 nM
COc1cc(F)ccc1-c1ccncc1N(C)C(=O)c1cc(C(F)(F)F)cc(S(=O)(=O)CCNS(C)(=O)=O)c1 [Example 270, N-[4-(4-Fluoro-2-methoxy-phenyl)-pyridin-3-yl]-3-(2-methanesulfonylamino-ethanesulfonyl)-N-methyl-5-trifluoromethyl-benzamide]	133 nM
Cc1cc(Cl)ccc1-c1ccncc1N(C)C(=O)c1cc(C(F)(F)F)cc(C(F)(F)F)c1 [Example 30, N-[4-(4-Chloro-2-methyl-phenyl)-pyridin-3-yl]-N-methyl-3,5-bis-trifluoromethyl-benzamide]	1620 nM
COc1cc(F)ccc1-c1ccnc(Cl)c1N(C)C(=O)c1cc(C(F)(F)F)cc(S(C)(=O)=O)c1 [Example 212, N-[2-Chloro-4-(4-fluoro-2-methoxy-phenyl)-pyridin-3-yl]-3-methanesulfonyl-N-methyl-5-trifluoromethyl-benzamide]	75 nM
Cc1ccccc1-c1ccncc1N(C)C(=O)c1cccc(Cl)c1 [Example 3, N-Methyl-N-(4-o-tolyl-pyridin-3-yl)-3-chloro-benzamide]	902 nM
CN(C(=O)c1cc(C(C)(C)O)cc(C(F)(F)F)c1)c1cnccc1-c1ccccc1Cl [Example 77, N-[4-(2-Chloro-phenyl)-pyridin-3-yl]-3-(1-hydroxy-1-methyl-ethyl)-N-methyl-5-trifluoromethyl-benzamide]	715 nM
CN(C(=O)c1cc(C(F)(F)F)cc(C(F)(F)F)c1)c1cnccc1-c1ccccc1 [Example 322, N-Methyl-N-(4-phenyl-pyridin-3-yl)-3,5-bis-trifluoromethyl-benzamide]	11 nM
COc1cccc(-c2ccncc2N(C)C(=O)c2cc(C(F)(F)F)cc(C(F)(F)F)c2)c1F [Example 62, N-[4-(2-Fluoro-3-methoxy-phenyl)-pyridin-3-yl]-N-methyl-3,5-bis-trifluoromethyl-benzamide]	337 nM
CN(C(=O)c1cc(C(F)(F)F)cc(C(F)(F)F)c1)c1cnccc1-c1cccnc1OCC(F)(F)F [Example 106, N-Methyl-N-[2-(2,2,2-trifluoro-ethoxy)-[3,4′]bipyridinyl-3′-yl]-3,5-bis-trifluoromethyl-benzamide]	43 nM
COc1ncccc1-c1ccncc1N(C)C(=O)c1cc(C(F)(F)F)cc(C(F)(F)F)c1 [Example 32, N-(2-Methoxy-[3,4′]bipyridinyl-3′-yl)-N-methyl-3,5-bis-trifluoromethyl-benzamide]	9 nM
COc1cc(-c2ccccc2C)c(N(C)C(=O)c2cc(C(F)(F)F)cc(C(F)(F)F)c2)cn1 [Example 14, N-(6-Methoxy-4-o-tolyl-pyridin-3-yl)-N-methyl-3,5-bis-trifluoromethyl-benzamide]	395 nM
COc1cc(F)ccc1-c1ccncc1N(CC(F)(F)F)C(=O)c1cc(C(F)(F)F)cc(S(C)(=O)=O)c1 [Example 136, N-[4-(4-Fluoro-2-methoxy-phenyl)-pyridin-3-yl]-3-methanesulfonyl-N-(2,2,2-trifluoro-ethyl)-5-trifluoromethyl-benzamide]	247 nM

SMILES	EC50
NC(=O)CN(C(=O)c1cc(C(F)(F)F)nc(C(F)(F)F)c1)c1cnccc1-c1ccccc1F [Example 197, N-Carbamoylmethyl-N-[4-(2-fluoro-phenyl)-pyridin-3-yl]-2,6-bis-trifluoromethyl-isonicotinamide]	105 nM
COC(=O)CN(C(=O)c1cc(C(F)(F)F)cc(C(F)(F)F)c1)c1cnccc1-c1ccccc1Cl [Example 88, {(3,5-Bis-trifluoromethyl-benzoyl)-[4-(2-chloro-phenyl)-pyridin-3-yl]-amino}-acetic acid methyl ester]	66 nM
COc1cc(F)ccc1-c1ccncc1N(C)C(=O)c1cc(C(F)(F)F)cc(S(=O)(=O)N(C)C)c1 [Example 143, 3-Dimethylsulfamoyl-N-[4-(4-fluoro-2-methoxy-phenyl)-pyridin-3-yl]-N-methyl-5-trifluoromethyl-benzamide]	12 nM
Cc1cc(-c2ccccc2C)c(N(C)C(=O)c2cc(C(F)(F)F)cc(C(F)(F)F)c2)cn1 [Example 127, N-Methyl-N-(6-methyl-4-o-tolyl-pyridin-3-yl)-3,5-bis-trifluoromethyl-benzamide]	75 nM
CCC(=O)CN(C(=O)c1cc(C(F)(F)F)nc(C(F)(F)F)c1)c1cnccc1-c1ccc(F)cc1OC [Example 203, N-[4-(4-Fluoro-2-methoxy-phenyl)-pyridin-3-yl]-N-(2-oxo-butyl)-2,6-bis-trifluoromethyl-isonicotinamide]	54 nM
CN(C(=O)c1cc(C(F)(F)F)cc(C(F)(F)F)c1)c1cnccc1-c1cccc(F)c1F [Example 40, N-[4-(2,3-Difluoro-phenyl)-pyridin-3-yl]-N-methyl-3,5-bis-trifluoromethyl-benzamide]	107 nM
CS(=O)(=O)c1cc(C(=O)N(CC(F)(F)F)c2cnccc2-c2ccccc2OC(F)(F)F)cc(C(F)(F)F)c1 [Example 298, 3-Methanesulfonyl-N-(2,2,2-trifluoro-ethyl)-N-[4-(2-trifluoromethoxy-phenyl)-pyridin-3-yl]-5-trifluoromethyl-benzamide]	788 nM
COc1cc(F)ccc1-c1ccncc1N(C)C(=O)c1cc(C(F)(F)F)nc(C(F)(F)F)c1 [Example 148, N-[4-(4-Fluoro-2-methoxy-phenyl)-pyridin-3-yl]-N-methyl-2,6-bis-trifluoro methyl-isonicotinamide]	6 nM
COc1cc(F)ccc1-c1ccncc1N(C)C(=O)c1cc(CCC(N)=O)cc(C(F)(F)F)c1 [Example 281, 3-(2-Carbamoyl-ethyl)-N-[4-(4-fluoro-2-methoxy-phenyl)-pyridin-3-yl]-N-methyl-5-trifluoromethyl-benzamide]	574 nM
Cc1ccccc1-c1cc(N2CCN(S(C)(=O)=O)CC2)ncc1N(C)C(=O)c1cc(C(F)(F)F)cc(C(F)(F)F)c1 [Example 17, N-[6-(4-Methanesulfonyl-piperazin-1-yl)-4-o-tolyl-pyridin-3-yl]-N-methyl-3,5-bis-trifluoromethyl-benzamide]	336 nM
CN(C(=O)c1cc(C(F)(F)F)cc(S(C)(=O)=O)c1)c1cnccc1-c1cccnc1Cl [Example 313, N-(2-Chloro-[3,4′]bipyridinyl-3′-yl)-3-methanesulfonyl-N-methyl-5-trifluoromethyl-benzamide]	1220 nM
COc1ncccc1-c1ccncc1N(CC(F)(F)F)C(=O)c1cc(C(F)(F)F)cc(S(C)(=O)=O)c1 [Example 142, 3-Methanesulfonyl-N-(2-methoxy-[3,4′]bipyridinyl-3′-yl)-N-(2,2,2-trifluoro-ethyl)-5-trifluoromethyl-benzamide]	396 nM
COc1cc(F)ccc1-c1ccncc1N(CC1CCCCO1)C(=O)c1cc(C(F)(F)F)cc(S(C)(=O)=O)c1 (single isomer, unassigned; (-)) [Example 290, (−)-N-[4-(4-Fluoro-2-methoxy-phenyl)-pyridin-3-yl]-3-methanesulfonyl-N-[1-(tetrahydro-pyran-2-yl)methyl]-5-trifluoromethyl-benzamide]	1740 nM
COc1ncccc1-c1ccncc1N(CC(F)(F)F)C(=O)c1cc(C(F)(F)F)cc(S(=O)(=O)N(C)C)c1 [Example 170, 3-Dimethylsulfamoyl-N-(2-methoxy-[3,4′]bipyridinyl-3′-yl)-N-(2,2,2-trifluoro-ethyl)-5-trifluoromethyl-benzamide]	118 nM
COc1cc(F)ccc1-c1ccncc1N(CCS(C)(=O)=O)C(=O)c1cc(C(F)(F)F)cc(S(C)(=O)=O)c1 [Example 306, N-[4-(4-Fluoro-2-methoxy-phenyl)-pyridin-3-yl]-3-methanesulfonyl-N-(2-methanesulfonyl-ethyl)-5-trifluoromethyl-benzamide]	190 nM
COc1cc(F)c(F)cc1-c1ccncc1N(CC(F)(F)F)C(=O)c1cc(C(F)(F)F)cc(S(=O)(=O)N(C)C)c1 [Example 140, N-[4-(4,5-Difluoro-2-methoxy-phenyl)-pyridin-3-yl]-3-dimethylsulfamoyl-N-(2,2,2-trifluoro-ethyl)-5-trifluoromethyl-benzamide]	124 nM
COC(=O)CN(C(=O)c1cc(C(F)(F)F)cc(S(C)(=O)=O)c1)c1cnccc1-c1cc(F)ccc1OC [Example 297, [[4-(5-Fluoro-2-methoxy-phenyl)-pyridin-3-yl]-(3-methanesulfonyl-5-trifluoromethyl-benzoyl)-amino]-acetic acid methyl ester]	521 nM
